The record followed here is US7338959B2, “Diamino-pyrimidines and their use as angiogenesis inhibitors” (SmithKline Beecham Corporation, priority 2002, dated 2008).

One assay deals with T1, GST-VEGFR2 (Homo sapiens, UniProt P35968).
T1 construct: baculovirus expressed recombinant constructs of the intracellular domains of human TIE2 tagged by GST; made in house
As to the kind of experiment: VEGF-R2 enzyme assay (VEGF-E), LANCE method. In kind it is biochemical. The conditions noted are these: GST-VEGFR2, 75 uM ATP, biotinylated peptide. An excerpt:
VEGF-R2 Enzyme Assay (VEGF-E)
The VEGF enzyme assay used the LANCE method (Wallac) and GST-VEGFR2, baculovirus expressed recombinant constructs of the intracellular domains of human TIE2 tagged by GST. The method measured the ability of the purified enzymes to catalyse the transfer of the γ-phosphate from ATP onto tyrosine residues in a biotinylated synthetic peptide, (biotin-aminohexyl-EEEEYFELVAKKKK-NH2). This peptide phosphorylation was detected using the following procedure: GST-VEGFR2 was incubated for 40-60 mins at room temperature with 75 uM ATP, 5 mM MgCl2, 0.1 mM DTT, 0.1 mg/mL BSA and the test compound (diluted from a 10 mM stock in DMSO for desired concentration) in 100 mM HEPES buffer. The reaction was stopped by the addition of EDTA (final concentration 50 mM). Streptavidin linked-APC (allophycocyanin, Molecular Probe) and Europium-labeled anti-phosphorylated tyrosine antibody (Wallac) were then added at the final concentration of 15 nM and 1 nM, respectively. The APC signal was measured using an ARVO multilabel counter (Wallac Berthold, Japan). The percent inhibition of activity was calculated relative to blank control wells. The concentration of test compound that inhibits 50% of activity (IC50) was interpolated using nonlinear regression (Levernberg-Marquardt) and the equation, y=Vmax (1−x/(K+x))+Y2, where “K” was equal to the IC50. The IC50 values were converted to pIC50 values, i.e., −log IC50 in Molar concentration.
A general note: In TR-FRET formats the signal depends on donor and acceptor labels being close together.

For assay [1], the system named is Human umbilical cord endothelial cells (HUVEC). As to the kind of experiment: VEGF-driven cellular proliferation assay: BrdU incorporation assay (VEGF-C). In kind it is cell-based. The conditions noted are these: 20 ng/ml VEGF. As to the method:
VEGF-Driven Cellular Proliferation Assay: BrdU Incorporation Assay (VEGF-C)
Human umbilical cord endothelial cells (HUVEC, Clonetics, CC2519) were passaged in Type I collagen-coated 100-mm petridishes in EGM-MV medium (Clonetics, CC3125) at 37 C in a humidified 5% CO2, 95% air incubator. (HUVEC passaged more than 6 times in vitro were discarded and not subjected to assaying.) The cells were harvested using trypsin/EDTA, counted using a haemocytometer and plated at 5000 cells/well in a Type I-collagen coated 96-well plate (Becton Dickinson, 354407) in M199 medium (Gibco BRL, 12340-030) containing 5% FBS (Hyclone, A 1115-L) and gentamicin (at 50 ug/ml, Gibco BRL). After incubation overnight at 37° C., the media were replaced with 100 ul of M199 serum-free medium containing compounds at various concentrations with 0.6% DMSO and gentamicin. The compounds were diluted in serum-free M199 medium from 10 mM stock solutions prepared in 100% DMSO. After a 30 min incubation at 37° C., the cells were fed with 100 ul of serum-free M199 medium containing gentamicin, 0.2% culture-grade bovine serum albumin (BSA, Sigma A1993) and 20 ng/ml of VEGF (REtD systems, 293-VE) or 0.6 ng/ml of basic FGF (REtD systems, 233-FB), and cultured at 37° C. for another 24 h. The cells were pulsed with bromodeoxyuridine (BrdU at 10 uM in serum-free M199) at 37° C. for an additional 24 h. The incorporation of BrdU into the proliferating HUVEC were analyzed using BrdU Cell Proliferation ELISA (Roche Molecular Biochemicals, 1647229) according to the manufacturer's protocols. The optical density at 450 nm was measured with a multilabel counter (ARVO SX, Wallac). The percent inhibition of cell growth was calculated relative to blank control wells. The concentration of test compound that inhibits 50% of cell growth (IC50) was interpolated using nonlinear regression (Levernberg-Marquardt) and the equation, y=Vmax (1−x/(K+x))+Y2, where “K” was equal to the IC50. The IC50 values were converted to pIC50 values, i.e., −log IC50 in Molar concentration.
In general terms: Uptake of a labelled nucleoside into DNA is a usual measure of proliferation.

The next assay addresses Recombinant GST-Tie2 (Homo sapiens, UniProt Q02763). As to the kind of experiment: Tie2 fluorescence polarization kinase activity assay (TIE2-FP). In kind it is biochemical. The conditions noted are these: activated Tie2, 200 μM ATP, peptide substrate. The protocol:
Tie2 Fluorescence Polarization Kinase Activity Assay: (TIE2-FP)
Activation of Recombinant Tie2 Activation:
Recombinant GST-Tie2 was activated by incubating the enzyme in 20 mM Tris-HCl, pH 7.5, 12 mM MgCl2, 100 mM NaCl, 20 μM sodium vanidate, 1 mM DTT and 300 μM ATP at room temperature for 2 hours. The activation mixture was then passed through a NAP-25 desalting column (Pharmacia Biotech cat. no. 17-0852-02) to remove the free ATP. The activated enzyme was stored as aliquots at −80° C. in 20 mM Tris-HCl, pH 7.5 and 100 mM NaCl.
The final assay conditions were 50 mM HEPES, pH 7.5, 5% DMSO (when screening compounds), 200 μM ATP, 5 mM MgCl2, 1 mM DTT, 50 μM sodium vanidate, 1 nM activated enzyme, and 200 μM peptide. IC50's of compounds were measured under subsaturating ATP (200 μM) and varing concentrations of activated Tie2 and peptide substrate (RFWKYEFWR-OH; MW 1873 Da, TFA salt). Panvera Anti-phosphotyrosine antibody (Cat#P2840) and PTK Green Tracer (Cat#P2842) were used to detect the phosphorylated peptide. Polarization was measured on a TECAN Polarion in 138-second cycles for 30 minutes at room temperature. IC50's were then determined from the % polarization using normal calculation methods.
(In general: Fluorescence polarisation rises when a labelled molecule tumbles more slowly, as on binding a larger partner.)

Counter-ions that a name gives are not always drawn.

Recombinant GST-Tie2, sequence (Q02763 23-1124): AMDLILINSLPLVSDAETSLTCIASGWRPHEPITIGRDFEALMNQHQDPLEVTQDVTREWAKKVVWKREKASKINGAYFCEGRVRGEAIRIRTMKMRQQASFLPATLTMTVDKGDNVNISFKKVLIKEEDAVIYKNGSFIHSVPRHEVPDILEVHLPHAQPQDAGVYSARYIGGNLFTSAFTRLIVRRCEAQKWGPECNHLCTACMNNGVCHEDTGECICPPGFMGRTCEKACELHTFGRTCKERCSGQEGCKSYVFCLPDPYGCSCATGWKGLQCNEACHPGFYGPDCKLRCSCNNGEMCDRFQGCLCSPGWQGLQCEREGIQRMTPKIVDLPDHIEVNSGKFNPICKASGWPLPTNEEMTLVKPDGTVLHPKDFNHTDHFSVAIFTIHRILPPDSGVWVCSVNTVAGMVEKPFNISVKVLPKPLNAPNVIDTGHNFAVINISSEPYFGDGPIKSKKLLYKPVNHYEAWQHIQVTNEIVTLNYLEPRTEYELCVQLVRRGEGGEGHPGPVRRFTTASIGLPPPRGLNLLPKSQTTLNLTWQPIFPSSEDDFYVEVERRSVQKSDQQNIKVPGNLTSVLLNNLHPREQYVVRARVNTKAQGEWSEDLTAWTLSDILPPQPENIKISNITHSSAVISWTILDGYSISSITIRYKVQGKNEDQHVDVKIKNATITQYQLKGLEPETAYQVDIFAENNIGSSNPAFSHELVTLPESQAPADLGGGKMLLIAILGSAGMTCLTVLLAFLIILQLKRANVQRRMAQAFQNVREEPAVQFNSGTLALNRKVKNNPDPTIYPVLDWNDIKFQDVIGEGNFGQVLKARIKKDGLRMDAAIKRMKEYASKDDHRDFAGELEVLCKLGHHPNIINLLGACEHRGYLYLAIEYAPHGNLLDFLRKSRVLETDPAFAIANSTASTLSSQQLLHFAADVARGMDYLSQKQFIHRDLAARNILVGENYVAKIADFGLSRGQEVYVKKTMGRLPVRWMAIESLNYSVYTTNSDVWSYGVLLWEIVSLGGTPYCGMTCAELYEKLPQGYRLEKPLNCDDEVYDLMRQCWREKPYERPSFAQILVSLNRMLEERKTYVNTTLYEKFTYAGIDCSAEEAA
T1 sequence (P35968 786-1356 limits assumed): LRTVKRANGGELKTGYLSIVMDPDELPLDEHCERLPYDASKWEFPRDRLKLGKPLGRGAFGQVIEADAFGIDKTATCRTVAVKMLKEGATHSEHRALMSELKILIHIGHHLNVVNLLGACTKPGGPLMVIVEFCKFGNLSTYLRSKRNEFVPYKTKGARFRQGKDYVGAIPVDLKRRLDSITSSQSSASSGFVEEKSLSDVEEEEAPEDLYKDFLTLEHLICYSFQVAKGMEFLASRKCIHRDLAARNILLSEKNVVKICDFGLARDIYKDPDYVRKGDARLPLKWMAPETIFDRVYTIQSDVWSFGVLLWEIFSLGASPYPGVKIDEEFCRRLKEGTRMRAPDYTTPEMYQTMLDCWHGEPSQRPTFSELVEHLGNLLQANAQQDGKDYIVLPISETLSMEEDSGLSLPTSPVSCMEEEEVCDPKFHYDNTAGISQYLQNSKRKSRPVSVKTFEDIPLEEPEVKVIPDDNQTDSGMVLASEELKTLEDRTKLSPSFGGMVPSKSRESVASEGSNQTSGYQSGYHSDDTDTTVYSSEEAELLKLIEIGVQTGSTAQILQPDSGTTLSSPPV

What is called IC50 is the midpoint of a concentration-inhibition curve. Take `CC(C)Nc1nc2cc(N(C)c3ccnc(Nc4ccc(CS(N)(=O)=O)cc4)n3)ccc2n1C` [Example 2, hydrochloride]: the half-inhibitory concentration (IC50) (on GST-VEGFR2; in assay [1]) was less than 100 nM throughout.

In the case of `CNc1nc2cc(N(C)c3ccnc(Nc4ccc(CS(C)(=O)=O)cc4)n3)ccc2n1C` [Example 3, hydrochloride], the IC50 (on GST-VEGFR2; in assay [1]) was less than 100 nM in each case.

For the molecule `CC(C)Nc1nc2cc(N(C)c3ccnc(Nc4ccc(CS(C)(=O)=O)cc4)n3)ccc2n1C` [Example 1, N^2-isopropyl-N^5,1-dimethyl-N^5-[2-({4-[(methylsulfonyl)methyl]phenyl}amino)pyrimidin-4-yl]-1H-benzimidazole-2,5-diamine hydrochloride], the IC50 (against GST-VEGFR2; in assay [1]) was less than 100 nM throughout.

Consider `CN(c1ccc2c(c1)nc(Nc1ccccc1)n2C)c1ccnc(Nc2ccc(CS(C)(=O)=O)cc2)n1` [Example 5, N^5,1-Dimethyl-N^5-[2-({4-[(methylsulfonyl)methyl]phenyl}amino)pyrimidin-4-yl]-N^2-phenyl-1H-benzimidazole-2,5-diamine trifluoroacetic acid], for which the IC50 (against GST-VEGFR2; in assay [1]) was less than 100 nM each time.

In the case of `CONS(=O)(=O)c1cc(Nc2nccc(N(C)c3ccc4c(c3)nc(NCc3ccccc3)n4C)n2)ccc1C` [Example 6, 5-({4-[[2-(Benzylamino)-1-methyl-1H-benzimidazol-5-yl](methyl)amino]pyrimidin-2-yl}amino)-N-methoxy-2-methylbenzenesulfonamide], the 50% inhibitory concentration (IC50) (against GST-VEGFR2; in assay [1]) was less than 100 nM in each case.

`CN(c1ccc2c(c1)nc(NC(=O)Cc1cccc(SC(F)(F)F)c1)n2C)c1ccnc(Nc2cccc(CS(C)(=O)=O)c2)n1` [Example 162, N-(5-{[2-(3-Methanesulfonylmethyl-phenylamino)-pyrimidin-4-yl]-methyl-amino}-1-methyl-1H-benzoimidazol-2-yl)-2-(3-trifluoromethylsulfanyl-phenyl)-acetamide]: the IC50 was 1000 to 10000 nM on Recombinant GST-Tie2 and less than 100 nM on GST-VEGFR2.

As to `CN(c1ccc2c(c1)nc(NCc1ccccc1)n2C)c1ccnc(Nc2ccc(CS(C)(=O)=O)cc2)n1` [Example 4, N^2-benzyl-N^5,1-dimethyl-N^5-[2-({4-[(methylsulfonyl)methyl]phenyl}amino)pyrimidin-4-yl]-1H-benzimidazole-2,5-diamine hydrochloride], the half-inhibitory concentration (IC50) (against GST-VEGFR2; in assay [1]) was less than 100 nM in each case.

Regarding `CN(c1ccc2c(c1)nc(NC(=O)C1(c3cc(F)ccc3F)CC1)n2C)c1ccnc(Nc2ccc(CS(C)(=O)=O)cc2)n1` [Example 204, 1-(2,5-Difluoro-phenyl)-cyclopropanecarboxylic acid ({[2-(4-methanesulfonylmethyl-phenylamino)-pyrimidin-4-yl]-methyl-amino}-methyl-1H-benzoimidazol-2-yl)-amide], the 50% inhibitory concentration (IC50) at Recombinant GST-Tie2 was 1000 to 10000 nM; against GST-VEGFR2, 100 to 1000 nM.

For the molecule `CN(c1ccc2c(c1)nc(NC(=O)Cc1cccs1)n2C)c1ccnc(Nc2ccc(CS(C)(=O)=O)cc2)n1` [Example 153], the 50% inhibitory concentration (IC50) is 1000 to 10000 nM at Recombinant GST-Tie2 and less than 100 nM at GST-VEGFR2.

Regarding “N-({[2-(4-Methanesulfonylmethyl-phenylamino)-pyrimidin-4-yl]-methyl-amino}-methyl-1H-benzoimidazol-2-yl)-dimethyl-butyramide [Example 177]”, the TIE2-FP result on Recombinant GST-Tie2 was “+ (+ = pIC50 of 5.0-6.0)”. For the same molecule, the VEGF-E entry on GST-VEGFR2 was “+++ (+++ = pIC50 of >7.0)”.

Turning to `CN(c1ccc2c(c1)nc(NC(=O)Cc1cccs1)n2C)c1ccnc(Nc2cccc(CS(C)(=O)=O)c2)n1` [Example 169, N-({[2-(3-Methanesulfonylmethyl-phenylamino)-pyrimidin-4-yl]-methyl-amino}-methyl-1H-benzoimidazol-2-yl)-C-thiophen-2-yl-acetamide], the results for the IC50 on Recombinant GST-Tie2 and against GST-VEGFR2 were 1000 to 10000 nM and less than 100 nM, respectively.

In the case of `Cc1ccc(Nc2nccc(N(C)c3ccc4c(c3)nc(NCCc3ccccc3)n4C)n2)cc1S(N)(=O)=O` [Example 95, 2-Methyl-5-{4-[methyl-(1-methyl-2-phenethylamino-1H-benzoimidazol-5-yl)-amino]-pyrimidin-2-ylamino}-benzenesulfonamide hydrochloride], the IC50 is 100 to 1000 nM at Recombinant GST-Tie2 and less than 100 nM at GST-VEGFR2.

Turning to `CN(c1ccc2c(c1)nc(Nc1cccc(F)c1)n2C)c1ccnc(Nc2ccc(CS(C)(=O)=O)cc2)n1` [Example 118], the IC50 on Recombinant GST-Tie2 was 100 to 1000 nM; at GST-VEGFR2, less than 100 nM.

As for `CN(c1ccc2c(c1)nc(NC(=O)C1(c3ccccc3)CC1)n2C)c1ccnc(Nc2ccc(CS(C)(=O)=O)cc2)n1` [Example 203, Phenylcyclopropanecarboxylic acid ({[2-(4-methanesulfonylmethyl-phenylamino)-pyrimidin-4-yl]-methyl-amino}-methyl-1H-benzoimidazol-2-yl)-amide], the IC50 on Recombinant GST-Tie2 and against GST-VEGFR2 was less than 100 nM throughout.
